Reference: ChEMBL document CHEMBL5604062, “ASAP - ZIKV NS2B-NS3 protease fluorescence dose response” (2024)
Several values for one entry are separate records, joined by “and”; a condition that tells them apart may be missing. Identical values can stand only once.

molecular target: Nonstructural protein 3 (Zika virus, UniProt A0A024AXB9); assay: Functional biochemical assay to identify treatments for viral infectious disease that targets Zika NS2B-NS3 protease. Utilizing a direct enzyme activity measurement method, reading the fluorescence intensity is used to characterize the relative potency of inhibitors as IC50.; parameters: species or system PRVABC59
Sequence (A0A024AXB9 whole entry): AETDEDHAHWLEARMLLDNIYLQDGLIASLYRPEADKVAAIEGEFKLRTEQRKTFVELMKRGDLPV

Row | Compound | IC50
1 | O=S(=O)(Nc1ccc2c(c1)CNC2)c1cccc2[nH]ncc12 | > 25 µM
2 | NC[C@H]1CC[C@H](CNC(=O)c2cc(Cl)cc(NC(=O)OCc3ccccc3)c2)CC1 | 25.4 µM and 25.7 µM
3 | NCc1ccc(NC(=O)[C@@H](NC(=O)OCc2ccccc2)c2ccc(OCc3ccccc3)cc2)cc1 | > 99.5 µM
4 | NCCc1cccc(NC(=O)c2cc(Cl)cc3[nH]ncc23)c1 | 0.632 µM
5 | CCn1c(=O)c(N2CC[C@H](c3cnccn3)C2)nc2ccccc21 | > 99.5 µM
6 | O=C(NCc1cccnc1)[C@H](Nc1ccc2c(c1)CNC2)c1cc(Cl)cc2[nH]ncc12 | 0.122 µM
7 | Clc1ccc(-c2cc(CN3CCC(c4cscn4)CC3)[nH]n2)cc1 | > 99.5 µM
8 | CN(C(=O)[C@@H](NC(=O)OCc1ccccc1)c1ccc(OCc2ccccc2)cc1)c1cccc(CN)c1 | > 99.5 µM
9 | NCc1cccc(NC(=O)[C@@H]2C[C@@H](O)CN2C(=O)C23CC4CC(CC(C4)C2)C3)c1 | > 99.5 µM
10 | CCCCCn1cc(C(=O)Nc2cccc(CN)c2)c2ccccc21 | 70.4 µM
11 | O=C(Nc1cc(-c2cccnc2)ccn1)c1cc2n(n1)CC(F)(F)C2 | > 25 µM
12 | COc1cc(Cl)cc([C@H](Nc2ccc3c(c2)CNC3)C(=O)NCC(F)F)c1 | 0.033 µM and 0.021 µM
13 | O=C(Nc1ccc2c(c1)CS(=O)(=O)C2)c1cc(Cl)cc2[nH]ncc12 | > 25 µM
14 | NCc1cccc(NC(=O)[C@@H](NC(=O)OCc2ccccc2)c2ccc(-c3cccc(F)c3)cc2)c1 | 7.19 µM and 6.8 µM
15 | COc1cc(Br)cc2c1NC(=O)[C@]2(Nc1ccc2c(c1)CNC2)C(N)=O | 19.9 µM
16 | Cc1c(C(=O)Nc2cc(-c3cccnc3)ccn2)cc(C2CCCCC2)n1C | > 12.5 µM
17 | CCNCc1ccc(NC(=O)c2cc(Cl)cc3[nH]ncc23)cc1 | 11.5 µM
18 | Cc1c(C(=O)Nc2cc(C(=O)N3CC[C@H](CO)C3)ccn2)cc(C2CC2)n1C | > 25 µM
19 | CN(C)Cc1cc(NC(=O)[C@@H](NC(=O)OCc2ccccc2)c2ccc(OCc3ccccc3)cc2)ccc1Cl | > 99.5 µM
20 | COCc1cc(Cl)ccc1NS(=O)(=O)c1ccc(Oc2ccccc2Cl)cc1 | > 99.5 µM
21 | NCc1cccc(NC(=O)c2cc(C3CC3)nc3ccc(Cl)cc23)c1 | > 99.5 µM
22 | C=CC[C@H]1c2ccc(NC(=O)c3cc(Br)cc4[nH]ccc34)cc2CN1C(=O)OC(C)(C)C | > 25 µM
23 | CNC(=O)[C@H](Nc1cccc(C2(C(=O)O)CCC2)c1)c1cc(Cl)cc(C2CC2)c1 | > 99.5 µM
24 | COc1cc(NC(=O)OCc2ccccc2)cc(C(=O)Nc2cccc(CN)c2)c1OC | > 99.5 µM
25 | N#CC1(c2ccccc2)CCN(Cc2c[nH]c3ccccc23)CC1 | > 99.5 µM

Row | Compound | IC50
26 | COc1ccc(S(=O)(=O)Nc2cc(F)c(Cl)cc2C(=O)O)cc1 | > 99.5 µM
27 | O=C(N[C@@H](C(=O)NC1CCNCC1)c1ccc(OCc2ccccc2)cc1)OCc1ccccc1 | > 99.5 µM
28 | N#Cc1ccccc1-c1ccc([C@H](NC(=O)OCc2ccccc2)C(=O)Nc2cccc(CN)c2)cc1 | 12 µM
29 | O=C(Nc1ccc2c(c1)CNC2)c1cc(Cl)cc2cc[nH]c12 | 0.07 µM and 0.065 µM
30 | O=C(Nc1cc(Cl)cc(C(=O)N2CCC[C@H]2c2nnn[nH]2)c1)OCc1ccccc1 | > 99.5 µM
31 | O=C(Nc1cc(Cl)cc(C(=O)Nc2ncc([C@H]3CCCN3)s2)c1)OCc1ccccc1 | > 99.5 µM
32 | COc1ccccc1Cn1cnc2cc(C(=O)Nc3ccc4c(c3)CNC4)ccc21 | > 25 µM
33 | COCCOc1ccc(Cl)cc1C(=O)Nc1ccc2c(c1)CNC2 | 3.06 µM
34 | O=C(Nc1cc(Cl)cc(C(=O)Nc2ccc(OC3CNC3)cc2)c1)OCc1ccccc1 | 5.64 µM
35 | CCn1ccc(-c2ccc([C@@H](NC(=O)OCc3ccccc3)C(=O)Nc3cccc(CN)c3)cc2)n1 | > 99.5 µM
36 | c1nc(C2CCN(Cc3n[nH]c4c3COCC4)CC2)cs1 | > 99.5 µM
37 | O=C(Nc1cc(Cl)cc(C(=O)Nc2cccc(C3(C(=O)O)CCC3)c2)c1)OCc1ccccc1 | 69 µM
38 | O=C(N[C@@H](C(=O)Nc1n[nH]c2c1CNC21CC1)c1ccc(OCc2ccccc2)cc1)OCc1ccccc1 | > 99.5 µM
39 | NCc1cccc(NC(=O)[C@@H](NC(=O)OCc2ccccc2)c2ccc(OCc3ccccn3)cc2)c1 | > 99.5 µM
40 | CC(C)(C)c1nc2c(C(=O)Nc3ccc4c(c3)CNC4)cc(Br)cc2[nH]1 | 0.328 µM
41 | c1ccc2c(CN[C@H]3CCc4c([nH]c5ccccc45)C3)n[nH]c2c1 | > 99.5 µM
42 | CC(C)n1ncc2c(C(=O)Nc3ccc4c(c3)CNC4)cc(Cl)cc21 | 0.186 µM
43 | Cc1cc(C(F)(F)F)cc(C(=O)Nc2ccc3c(c2)CNC3)n1 | > 25 µM
44 | CC(C)c1cc(-c2ccc([C@@H](NC(=O)OCc3ccccc3)C(=O)Nc3cccc(CN)c3)cc2)on1 | 24 µM
45 | c1cnc2c(CN3CCC(c4c[nH]c5cccnc45)CC3)c[nH]c2c1 | 44.4 µM
46 | O=S(=O)(Nc1cccc(-c2nnn[nH]2)c1)c1cc(F)cc(Cl)c1 | > 99.5 µM
47 | CCOC(=O)[C@H]1[C@H](c2cccc(CN)c2)[C@H]1c1cc(Cl)cc(NC(=O)OCc2ccccc2)c1 | 17.2 µM
48 | NC[C@@H]1CN(c2cc(-c3ccc(N)nc3)cc3c2COB3O)C(=O)O1 | > 99.5 µM
49 | CS(=O)(=O)c1cc(CN)cc(NC(=O)c2cc(Cl)cc(NC(=O)OCc3ccccc3)c2)c1 | 23.3 µM
50 | Brc1cnn(C2CCN(Cc3csnn3)CC2)c1 | > 99.5 µM

Row | Compound | IC50
51 | Cc1cc(NC(=O)OCc2ccccc2)cc(C(=O)Nc2cccc(CN)c2)c1C | > 99.5 µM
52 | CCc1c(C(=O)Nc2cccc(CN)c2)c2cc(Cl)ccc2n1C | > 99.5 µM
53 | O=C(O)c1cc(Cl)ccc1S(=O)(=O)Nc1ccc(C(=O)N2CCCCC2)cc1 | > 99.5 µM
54 | NCc1cccc(CNC(=O)[C@H](NC(=O)OCc2ccccc2)c2ccc(OCc3ccccc3)cc2)c1 | 13.1 µM
55 | COCC(=O)N1CCC([C@@H](NC(=O)OCc2ccccc2)C(=O)Nc2cccc(CN)c2)CC1 | > 99.5 µM
56 | C=CC[C@]1(NC(=O)c2cc(Cl)cc(NC(=O)OCc3ccccc3)c2)CCNC1 | > 99.5 µM
57 | CCN(CC(=O)NC)C(=O)c1cc(Cl)ccc1NS(=O)(=O)c1ccc(Oc2ccccc2Cl)cc1 | > 99.5 µM
58 | NCc1cccc(NC(=O)[C@H]2[C@@H]3CC[C@@H](C3)[C@H]2NC(=O)OCc2ccccc2)c1 | 30.8 µM and 30.7 µM
59 | O=C(N[C@H]1[C@H]2CCCCC[C@H]2[C@H]1C(=O)Nc1cccc(-n2nn[nH]c2=O)c1)OCc1ccccc1 | 63 µM
60 | Cc1c(C(=O)Nc2cc(-c3ccccc3)ccn2)cc(C2CC2)n1C | > 25 µM
61 | O=C(Nc1cc(Cl)cc(C(=O)Nc2cccc([C@H]3CCNC3)c2)c1)OCc1ccccc1 | 8.73 µM and 11.6 µM
62 | NCc1cccc(NC(=O)c2cc(NC(=O)OCc3ccccc3)cc(C(F)(F)F)c2)c1 | 14.6 µM
63 | NCc1cc(C(=O)N[C@H]2CCCOC2)cc([C@@H]2C[C@H]2c2cc(Cl)cc(NC(=O)OCc3ccccc3)c2)c1 | 11.4 µM
64 | O=S(=O)(Nc1ccc(Cl)cc1)c1ccc(Oc2ccccc2Cl)cc1 | > 99.5 µM
65 | Cc1c(C(=O)Nc2cc(C(=O)N(C)C3COC3)ccn2)cc(C2CC2)n1C | > 25 µM
66 | CNC(=O)[C@H](Nc1cccc(-c2nnn[nH]2)c1)c1cc(Cl)cc(C2CC2)c1 | > 99.5 µM
67 | N#Cc1cc(C(=O)Nc2ccc3c(c2)CNC3)cc(C(F)(F)F)c1 | 0.533 µM
68 | CCCCN1Cc2ccc(NS(=O)(=O)c3ccc(Cl)cc3C(=O)O)cc2C1 | > 99.5 µM
69 | CC(C)CCN1Cc2ccc(NC(=O)c3cc(Cl)cc4[nH]ncc34)cc2C1 | 3.39 µM
70 | O=C(Nc1cc(Cl)cc(C(=O)Nc2cccc([C@H]3CCCN3)c2)c1)OCc1ccccc1 | 27.6 µM
71 | CN(C)Cc1cc(NC(=O)c2cc(Cl)cc(NC(=O)OCc3ccccc3)c2)sn1 | > 99.5 µM
72 | NC[C@@H]1CN(c2cc(N3CC[C@H](N)C3)cc3c2COB3O)C(=O)O1 | 72 µM
73 | O=C1Cc2ccc(NC(=O)c3cc(F)cc4[nH]ncc34)cc2N1 | > 25 µM
74 | CCn1c(C)cc(C(=O)Nc2cc(CCCN)ccn2)c1C | > 25 µM
75 | NCc1cccc(NC(=O)[C@@H](NS(=O)(=O)CCc2ccccc2)c2ccc(OCc3ccccc3)cc2)c1 | 34 µM

Row | Compound | IC50
76 | O=C(O)c1cc(Cl)ccc1NS(=O)(=O)c1ccc(Br)cc1 | > 99.5 µM
77 | O=C(O)c1cc(Cl)ccc1NS(=O)(=O)c1ccc(-c2cc[nH]n2)cc1 | > 99.5 µM
78 | CCc1ccc([C@@H](NC(=O)OCc2ccccc2)C(=O)Nc2cccc(CN)c2)cc1 | > 99.5 µM
79 | O=C(O)c1cccc(NC(=O)c2cccc(OCc3c(Cl)cccc3Cl)c2)c1 | > 99.5 µM
80 | Fc1cc(CNc2ccc3c(n2)CNC3)c2cn[nH]c2c1 | > 25 µM
81 | Cn1cc(-c2cccc([C@@H](NC(=O)OCc3ccccc3)C(=O)Nc3cccc(CN)c3)c2)ccc1=O | 73.9 µM
82 | N#Cc1cc(Cl)cc(-c2ccc3[nH]c(C(=O)O)cc3c2)c1 | > 99.5 µM
83 | Cc1cc(NC(=O)c2cc(C3CC3)n(C)c2C)cnc1N1CCCCC1 | > 25 µM
84 | NCc1cccc(NC(=O)C[C@H](NC(=O)OCc2ccccc2)c2ccc(Br)cc2)c1 | 48.7 µM
85 | O=C(O)CCCc1cccc(NC(=O)c2cc(Cl)cc(NC(=O)OCc3ccccc3)c2)c1 | 84.3 µM
86 | O=C(Nc1ccc2c(c1)CNC2)c1cc(F)c2[nH]ccc2c1 | 0.274 µM
87 | CCN(CC)C[C@H]1CCCN(C(=O)Nc2ccc3c(c2)CNC3)C1 | > 25 µM
88 | O=C(NCC1CC1)c1cc(Cl)cc(NS(=O)(=O)c2ccc(Oc3ccccc3Cl)cc2)c1 | 49.9 µM
89 | N[C@H]1C[C@H](CNC(=O)[C@@H](NC(=O)OCc2ccccc2)c2ccc(OCc3ccccc3)cc2)C1 | > 99.5 µM
90 | O=C1Cc2c(cccc2C(=O)Nc2cc3c(cn2)OCCO3)N1 | > 25 µM
91 | CC(C)(C)c1cc(CN2CCC(c3cscn3)CC2)n[nH]1 | > 99.5 µM
92 | O=Cc1ccc(N2CCC(C(=O)Nc3cccc(Br)n3)CC2)cc1 | 24.7 µM
93 | CCn1c(=O)c(N2C[C@H](O)C3(CC3)C2)nc2ccccc21 | > 99.5 µM
94 | NCc1cccc(NC(=O)C[C@H](NC(=O)OCc2ccccc2)c2ccc(Cl)c(F)c2)c1 | 71.4 µM
95 | O=C(Nc1ccc2c(c1)CNC2)c1cc(Cl)cc2[nH]c(-c3cnc(C4CC4)o3)nc12 | 0.05 µM and 0.027 µM
96 | O=C(Nc1cc(Cl)cc(C(=O)N2CCC[C@H](c3nnn[nH]3)C2)c1)OCc1ccccc1 | > 99.5 µM
97 | CN(C)CCc1ccc(CNC(=O)[C@@H](NC(=O)OCc2ccccc2)c2ccc(OCc3ccccc3)cc2)cc1 | 54.6 µM
98 | NC(=O)N1CCc2ccc(NC(=O)c3cccc4c3CC(=O)N4)cc21 | > 25 µM
99 | O=S(=O)(c1ccc(Oc2ccccc2Cl)cc1)n1ccc2cc(Cl)ccc21 | > 99.5 µM
100 | CC(C)(CO)NC(=O)[C@@H](NC(=O)OCc1ccccc1)c1ccc(OCc2ccccc2)cc1 | > 99.5 µM
